Usually IC50 stands for the concentration needed to halve the response being measured.

Results on one molecule are retold here after publication PMC4317859 (Cancer Science, 2014).

For data set [1] the following is noted: clinical dose 1200–1250 mg, once daily; cited from earlier work.
Data set [2] concerns NCI-N87 cells. The experiment in a line: Growth inhibition in the presence of human serum protein. The conditions noted are these: serum albumin or α1-acid glycoprotein vs standard medium. It is filed as cell-based.
Data set [3] can be described thus: Pharmacokinetics in nude mice. The data set is classed as in vivo. The conditions noted are these: from human plasma AUC and pharmacokinetic parameters in nude mice.
For data set [4], the system named is MRC-5 (lung). The experiment in a line: Growth inhibition assay. The data set is classed as cell-based. The conditions noted are these: Homo sapiens, MRC5, 72 h, read-out: IC50, growth inhibition of cultured cells.
Data set [5] has as its system MDA-MB-453 (breast). The experiment in a line: Growth inhibition assay. The conditions noted are these: Homo sapiens, MDA-MB-453, 72 h, read-out: IC50, growth inhibition of cultured cells. It is filed as cell-based.
Data set [6] deals with α1-acid glycoprotein. The conditions noted are these: cited from earlier work.
Data set [7] relates to HT115 (colon). The experiment in a line: Growth inhibition assay. The conditions noted are these: Homo sapiens, HT115, 72 h, read-out: IC50, growth inhibition of cultured cells. It is filed as cell-based.
Data set [8] has as its system MDA-MB-175VII (breast). The experiment in a line: Growth inhibition assay. The conditions noted are these: Homo sapiens, 72 h, read-out: IC50, growth inhibition of cultured cells. The data set is classed as cell-based.
Data set [9] has as its target serum albumin (Homo sapiens, UniProt P02768). The conditions noted are these: cited from earlier work.
In data set [10] the test system is Calu-3 (lung). The experiment in a line: Growth inhibition assay. The data set is classed as cell-based. The conditions noted are these: Homo sapiens, Calu-3, 72 h, read-out: IC50, growth inhibition of cultured cells.
Data set [11] has as its system NCI-N87 (stomach). The experiment in a line: Growth inhibition assay. The conditions noted are these: Homo sapiens, NCI-N87, 72 h, read-out: IC50, growth inhibition of cultured cells. The data set is classed as cell-based.
The test system of data set [12] is BT-474 (breast). The experiment in a line: Growth inhibition assay. The data set is classed as cell-based. The conditions noted are these: Homo sapiens, BT-474, 72 h, read-out: IC50, growth inhibition of cultured cells.
The test system of data set [13] is BT-474 cells. The experiment in a line: Survival model, intracranial implantation. The data set is classed as in vivo, mice. The conditions noted are these: 200 mg/kg, oral daily.
The subject of data set [14] is SK-BR-3 (breast). The experiment in a line: Growth inhibition assay. The data set is classed as cell-based. The conditions noted are these: Homo sapiens, SK-BR-3, 72 h, read-out: IC50, growth inhibition of cultured cells.

serum albumin, sequence (P02768 25-609): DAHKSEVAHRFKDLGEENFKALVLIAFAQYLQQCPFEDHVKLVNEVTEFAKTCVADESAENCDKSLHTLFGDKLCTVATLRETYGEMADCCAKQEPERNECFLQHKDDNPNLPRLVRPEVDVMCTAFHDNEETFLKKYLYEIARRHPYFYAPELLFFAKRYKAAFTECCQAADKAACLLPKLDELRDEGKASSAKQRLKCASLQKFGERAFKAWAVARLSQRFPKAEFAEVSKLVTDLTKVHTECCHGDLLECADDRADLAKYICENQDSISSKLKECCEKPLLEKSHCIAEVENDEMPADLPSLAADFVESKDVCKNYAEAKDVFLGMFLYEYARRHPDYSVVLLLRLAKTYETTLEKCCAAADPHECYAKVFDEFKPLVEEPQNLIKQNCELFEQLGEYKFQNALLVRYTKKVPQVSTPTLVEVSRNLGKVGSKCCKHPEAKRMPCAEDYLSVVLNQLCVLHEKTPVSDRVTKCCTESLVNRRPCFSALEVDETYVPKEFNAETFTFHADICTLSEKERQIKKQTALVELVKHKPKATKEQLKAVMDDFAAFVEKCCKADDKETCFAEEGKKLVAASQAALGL

Turning to `CS(=O)(=O)CCNCc1ccc(-c2ccc3ncnc(Nc4ccc(OCc5cccc(F)c5)c(Cl)c4)c3c2)o1` [Lapatinib, N-{3-chloro-4-[(3-fluorobenzyl)oxy]phenyl}-6-[5-({[2-(methylsulfonyl)ethyl]amino}methyl)-2-furyl]-4-quinazolinamine], the “Human plasma AUC” value in data set [1] was 14300 to 36200 ng·h/mL. In addition, the “Elevation of IC50 by addition of serum proteins” value in data set [2] is on record as 10.6–12.7 fold. In data set [3], the “Clinically relevant dose in mice (assumed)” value is listed as “approximately 50 mg/kg”. In addition, the IC50 in [4] stood at 9140 ± 643 nM; in data set [5], 170 ± 3 nM; in [7], 100 ± 1.5 nM; in data set [8], 70.2 ± 10.2 nM; in data set [10], 510 ± 85.8 nM; in data set [11], 36.4 ± 5.2 nM. Moreover, the IC50 in data set [12] is 29.4 ± 2.2 nM; in [14] it was 56.9 ± 5.4 nM. In addition, in data set [6], the “Bound to α1-acid glycoprotein” value is given as greater than 99%. The “Bound to serum albumin” value in [9] is listed as greater than 99%. In addition, the Survival entry in data set [13] was “not significant”.
